Laboratory results reported in PubChem BioAssay (NCI).
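Each compound was tested at five concentrations against cells in 96-well plates for 48 hours. Here, GI50 denotes the concentration required for 50% inhibition of growth. TGI: total growth inhibition.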

Key:
Test in all cases: NCI-60 cell line screen, 48 h
786-0 renal = tested on: 786-0 renal
A498 renal = tested on: A498 renal
A549 NSCLC = tested on: A549 NSCLC
ACHN renal = tested on: ACHN renal
BT-549 breast = tested on: BT-549 breast
CAKI-1 renal = tested on: CAKI-1 renal
CCRF-CEM leukemia = tested on: CCRF-CEM leukemia
COLO 205 colon = tested on: COLO 205 colon
DU-145 prostate = tested on: DU-145 prostate
HCC-2998 colon = tested on: HCC-2998 colon
HCT-116 colon = tested on: HCT-116 colon
HCT-15 colon = tested on: HCT-15 colon
HL-60(TB) leukemia = tested on: HL-60(TB) leukemia
HOP-62 NSCLC = tested on: HOP-62 NSCLC
HOP-92 NSCLC = tested on: HOP-92 NSCLC
HS 578T breast = tested on: HS 578T breast
HT29 colon = tested on: HT29 colon
IGROV1 ovarian = tested on: IGROV1 ovarian
K-562 leukemia = tested on: K-562 leukemia
KM12 colon = tested on: KM12 colon
LOX IMVI melanoma = tested on: LOX IMVI melanoma
M14 melanoma = tested on: M14 melanoma
MALME-3M melanoma = tested on: MALME-3M melanoma
MCF7 breast = tested on: MCF7 breast
MDA-MB-231 breast = tested on: MDA-MB-231 breast
MDA-MB-435 = tested on: MDA-MB-435
MOLT-4 leukemia = tested on: MOLT-4 leukemia
NCI-H226 lung = tested on: NCI-H226 lung
NCI-H23 lung = tested on: NCI-H23 lung
NCI-H460 lung = tested on: NCI-H460 lung
NCI-H522 lung = tested on: NCI-H522 lung
NCI/ADR-RES ovarian = tested on: NCI/ADR-RES ovarian
OVCAR-3 ovarian = tested on: OVCAR-3 ovarian
OVCAR-4 ovarian = tested on: OVCAR-4 ovarian
OVCAR-5 ovarian = tested on: OVCAR-5 ovarian
OVCAR-8 ovarian = tested on: OVCAR-8 ovarian
PC-3 prostate = tested on: PC-3 prostate
RPMI-8226 leukemia = tested on: RPMI-8226 leukemia
RXF 393 renal = tested on: RXF 393 renal
SF-268 CNS = tested on: SF-268 CNS
SF-295 CNS = tested on: SF-295 CNS
SF-539 CNS = tested on: SF-539 CNS
SK-MEL-2 melanoma = tested on: SK-MEL-2 melanoma
SK-MEL-28 melanoma = tested on: SK-MEL-28 melanoma
SK-MEL-5 melanoma = tested on: SK-MEL-5 melanoma
SK-OV-3 ovarian = tested on: SK-OV-3 ovarian
SN12C renal = tested on: SN12C renal
SNB-19 CNS = tested on: SNB-19 CNS
SNB-75 CNS = tested on: SNB-75 CNS
SR leukemia = tested on: SR leukemia
SW-620 colon = tested on: SW-620 colon
T-47D breast = tested on: T-47D breast
TK-10 renal = tested on: TK-10 renal
U251 CNS = tested on: U251 CNS
UACC-257 melanoma = tested on: UACC-257 melanoma
UACC-62 melanoma = tested on: UACC-62 melanoma
UO-31 renal = tested on: UO-31 renal

Cn1cc(C2=C(c3c4n(c5ccccc35)CC(CN)C4)C(=O)NC2=O)c2ccccc21 (centres undefined)
GI50 (786-0 renal): 3.64 µM
TGI (786-0 renal): 8.53 µM
GI50 (A498 renal): 2.96 µM
TGI (A498 renal): 6.4 µM
GI50 (A549 NSCLC): 3.74 µM
TGI (A549 NSCLC): 10.9 µM
GI50 (ACHN renal): 3.16 µM
TGI (ACHN renal): 12.3 µM
GI50 (BT-549 breast): 4.46 µM
TGI (BT-549 breast): 10.5 µM
GI50 (CAKI-1 renal): 3.37 µM
TGI (CAKI-1 renal): 9.51 µM
GI50 (CCRF-CEM leukemia): 4.82 µM
TGI (CCRF-CEM leukemia): 25 µM
GI50 (COLO 205 colon): 2.59 µM
TGI (COLO 205 colon): 6.05 µM
GI50 (DU-145 prostate): 4.02 µM
TGI (DU-145 prostate): 9.53 µM
GI50 (HCC-2998 colon): 4.01 µM
TGI (HCC-2998 colon): 8.02 µM
GI50 (HCT-116 colon): 2.32 µM
TGI (HCT-116 colon): 6.22 µM
GI50 (HCT-15 colon): 4.33 µM
TGI (HCT-15 colon): 15.8 µM
GI50 (HL-60(TB) leukemia): 3.35 µM
TGI (HL-60(TB) leukemia): 9.91 µM
GI50 (HOP-62 NSCLC): 4.56 µM
TGI (HOP-62 NSCLC): 11 µM
GI50 (HOP-92 NSCLC): 4.32 µM
TGI (HOP-92 NSCLC): 11.6 µM
GI50 (HS 578T breast): 1.03 µM
TGI (HS 578T breast): 5.6 µM
GI50 (HT29 colon): 3.04 µM
TGI (HT29 colon): 11.8 µM
GI50 (IGROV1 ovarian): 3.52 µM
TGI (IGROV1 ovarian): 9.08 µM
GI50 (K-562 leukemia): 1.64 µM
TGI (K-562 leukemia): 17.9 µM
GI50 (KM12 colon): 3.46 µM
TGI (KM12 colon): 9.22 µM
GI50 (LOX IMVI melanoma): 2.98 µM
TGI (LOX IMVI melanoma): 6.92 µM
GI50 (M14 melanoma): 3.3 µM
TGI (M14 melanoma): 7.33 µM
GI50 (MALME-3M melanoma): 4.17 µM
TGI (MALME-3M melanoma): 8.52 µM
GI50 (MCF7 breast): 1.4 µM
TGI (MCF7 breast): 4.85 µM
GI50 (MDA-MB-231 breast): 3.78 µM
TGI (MDA-MB-231 breast): 9.76 µM
GI50 (MDA-MB-435): 1.11 µM
TGI (MDA-MB-435): 4.72 µM
GI50 (MOLT-4 leukemia): 3.4 µM
TGI (MOLT-4 leukemia): 15 µM
GI50 (NCI-H226 lung): 3.93 µM
TGI (NCI-H226 lung): 18 µM
GI50 (NCI-H23 lung): 4.38 µM
TGI (NCI-H23 lung): 11.1 µM
GI50 (NCI-H460 lung): 3.79 µM
TGI (NCI-H460 lung): 7.8 µM
GI50 (NCI-H522 lung): 3 µM
TGI (NCI-H522 lung): 6.63 µM
GI50 (NCI/ADR-RES ovarian): 10.1 µM
TGI (NCI/ADR-RES ovarian): 25 µM
GI50 (OVCAR-3 ovarian): 2.82 µM
TGI (OVCAR-3 ovarian): 9.35 µM
GI50 (OVCAR-4 ovarian): 2.33 µM
TGI (OVCAR-4 ovarian): 10.6 µM
GI50 (OVCAR-5 ovarian): 7.16 µM
TGI (OVCAR-5 ovarian): 22.1 µM
GI50 (OVCAR-8 ovarian): 3.92 µM
TGI (OVCAR-8 ovarian): 8.93 µM
GI50 (PC-3 prostate): 2.04 µM
TGI (PC-3 prostate): 9.01 µM
GI50 (RPMI-8226 leukemia): 4.57 µM
TGI (RPMI-8226 leukemia): 11.1 µM
GI50 (RXF 393 renal): 2.87 µM
TGI (RXF 393 renal): 6.19 µM
GI50 (SF-268 CNS): 3.94 µM
TGI (SF-268 CNS): 9.57 µM
GI50 (SF-295 CNS): 3.54 µM
TGI (SF-295 CNS): 8.56 µM
GI50 (SF-539 CNS): 2.99 µM
TGI (SF-539 CNS): 6.24 µM
GI50 (SK-MEL-2 melanoma): 1.69 µM
TGI (SK-MEL-2 melanoma): 5.35 µM
GI50 (SK-MEL-28 melanoma): 3.37 µM
TGI (SK-MEL-28 melanoma): 7.01 µM
GI50 (SK-MEL-5 melanoma): 3.53 µM
TGI (SK-MEL-5 melanoma): 6.89 µM
GI50 (SK-OV-3 ovarian): 1.93 µM
TGI (SK-OV-3 ovarian): 14.7 µM
GI50 (SN12C renal): 3.4 µM
TGI (SN12C renal): 11 µM
GI50 (SNB-19 CNS): 5.39 µM
TGI (SNB-19 CNS): 15.3 µM
GI50 (SNB-75 CNS): 0.246 µM
TGI (SNB-75 CNS): 2.93 µM
GI50 (SR leukemia): 1.74 µM
TGI (SR leukemia): 13.8 µM
GI50 (SW-620 colon): 2.98 µM
TGI (SW-620 colon): 6.84 µM
GI50 (T-47D breast): 5.26 µM
TGI (T-47D breast): 13.5 µM
GI50 (TK-10 renal): 2.94 µM
TGI (TK-10 renal): 8.07 µM
GI50 (U251 CNS): 2.61 µM
TGI (U251 CNS): 5.77 µM
GI50 (UACC-257 melanoma): 3.92 µM
TGI (UACC-257 melanoma): 7.8 µM
GI50 (UACC-62 melanoma): 3.3 µM
TGI (UACC-62 melanoma): 6.76 µM
GI50 (UO-31 renal): 2.83 µM
TGI (UO-31 renal): 8.27 µM
